T/C data for 23 compounds are collected here from PubChem BioAssay AID330 (DTP/NCI, 2004).

In the assay the test system is P388 leukemia ip, CD2F1 mice, survival T/C. The assay can be described thus: NCI In Vivo Anticancer Drug Screen. Data for tumor model P388 Leukemia (intraperitoneal) in CD2F1 (CDF1) mice. The settings on record: endpoint: median survival time, higher = longer survival. The procedure, abridged:
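Mice carrying the transplanted tumor received test compound or vehicle. Survival was recorded in each group, and the value is the treated-group measurement divided by that of the vehicle-treated control group.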

Where [1] appears, read: dose: 60.0 mg/kg/injection, schedule: Q01DX005 (ip), vehicle: saline with Tween-80.
The mark [2] stands for this setting: dose: 120.0 mg/kg/injection, schedule: Q01DX005 (ip), vehicle: saline with Tween-80.
The mark [3] stands for this setting: dose: 240.0 mg/kg/injection, schedule: Q01DX005 (ip), vehicle: saline with Tween-80.
[4] abbreviates: dose: 6.25 mg/kg/injection, schedule: Q01DX009 (ip), vehicle: saline.
[5] abbreviates: dose: 12.5 mg/kg/injection, schedule: Q01DX009 (ip), vehicle: saline.
Setting [6] is: dose: 25.0 mg/kg/injection, schedule: Q01DX009 (ip), vehicle: saline.
Setting [7] is: dose: 50.0 mg/kg/injection, schedule: Q01DX009 (ip), vehicle: saline.
[8] abbreviates: dose: 100.0 mg/kg/injection, schedule: Q01DX009 (ip), vehicle: saline.
The mark [9] stands for this setting: dose: 50.0 mg/kg/injection, schedule: Q01DX005 (ip), vehicle: Klucel (hydroxypropylcellulose) (HPC).
Where [10] appears, read: dose: 100.0 mg/kg/injection, schedule: Q01DX005 (ip), vehicle: Klucel (hydroxypropylcellulose) (HPC).
The mark [11] stands for this setting: dose: 200.0 mg/kg/injection, schedule: Q01DX005 (ip), vehicle: Klucel (hydroxypropylcellulose) (HPC).
Setting [12] is: dose: 60.0 mg/kg/injection, schedule: Q01DX005 (ip), vehicle: Klucel (hydroxypropylcellulose) (HPC).
The mark [13] stands for this setting: dose: 120.0 mg/kg/injection, schedule: Q01DX005 (ip), vehicle: Klucel (hydroxypropylcellulose) (HPC).
[14] abbreviates: dose: 240.0 mg/kg/injection, schedule: Q01DX005 (ip), vehicle: Klucel (hydroxypropylcellulose) (HPC).

SMILES strings stand for the structures. Where “and” joins values, the source holds several entries; their conditions need not be identical. Equal values may be shown once. Toxic doses and inconclusive results are not listed.

Take `O=C(Nc1ccc(Cl)cc1)Nc1nnc2nc(CC(=O)c3ccccc3)c(=O)[nH]n12`: the T/C under setting [1] is 98 % of control, the T/C under setting [2] is 99 % of control and the T/C under setting [3] was 91 % of control.

Take `NNC(=O)SCCC(=O)O`: the T/C reads like this: (dose: 50.0 mg/kg/injection, schedule: Q01DX005 (ip), vehicle: saline with Tween-80) 97 % of control; (dose: 100.0 mg/kg/injection, schedule: Q01DX005 (ip), vehicle: saline with Tween-80) 97 % of control; (dose: 200.0 mg/kg/injection, schedule: Q01DX005 (ip), vehicle: saline with Tween-80) 101 % of control.

In the case of `O=C(O)C(=O)O.[NH-]CC[NH-].[Pt+2]`, under “dose: 3.12 mg/kg/injection, schedule: Q04DX002 (ip), vehicle: saline with Tween-80”, the T/C was 117 % of control.

In the case of `Cn1cnccc1=O`, the T/C is 102 % of control under setting [4]; 103 % of control under setting [5]; 106 % of control under setting [6]; 106 % of control under setting [7]; 103 % of control under setting [8].

With `O=S(=O)(c1cnccc1N1CCN(CCO)CC1)N1CCCC1`, the T/C under setting [7] is 106 % of control; the T/C under setting [8] was 101 % of control; the T/C (dose: 200.0 mg/kg/injection, schedule: Q01DX009 (ip), vehicle: saline) is 87 % of control.

For `O=C1CC2(C(=O)NN1)C1=C(c3ccccc3CC1)N1CCCC12` (centres undefined), the T/C runs as follows: (dose: 11.25 mg/kg/injection, schedule: Q01DX009 (ip), vehicle: Klucel (hydroxypropylcellulose) (HPC)) 100 % of control; (dose: 22.5 mg/kg/injection, schedule: Q01DX009 (ip), vehicle: Klucel (hydroxypropylcellulose) (HPC)) 102 % of control; (dose: 45.0 mg/kg/injection, schedule: Q01DX009 (ip), vehicle: Klucel (hydroxypropylcellulose) (HPC)) 100 % of control; (dose: 90.0 mg/kg/injection, schedule: Q01DX009 (ip), vehicle: Klucel (hydroxypropylcellulose) (HPC)) 100 % of control.

Take `C=CCP1(C)=NP(OCC(F)(F)F)(OCC(F)(F)F)=NP(OCC(F)(F)F)(OCC(F)(F)F)=N1` (centres undefined): the T/C was 99 % of control under setting [9], 101 % of control under setting [10] and 92 % of control under setting [11].

Regarding `CC(=O)Nc1c(Cl)cc2c(c1Cl)Cc1cc(N(CCO)CCO)ccc1-2`, the T/C is 97 % of control under setting [4], 93 % of control under setting [5], 93 % of control under setting [6] and 94 % of control under setting [7].

As for `O=C1CSC(c2ccco2)N1c1nncs1` (centres undefined), the T/C was 100 % of control (dose: 30.0 mg/kg/injection, schedule: Q01DX005 (ip), vehicle: Klucel (hydroxypropylcellulose) (HPC)); 100 % of control under setting [12]; 103 % of control under setting [13]; 108 % of control under setting [14].

With `[Br][Pt+2][Br].[NH-]C1CCCC1[NH-]` (centres undefined), the T/C is 164 % of control (dose: 12.5 mg/kg/injection, schedule: Q04DX002 (ip), vehicle: saline with Tween-80); 197 % of control and 174 % of control (dose: 25.0 mg/kg/injection, schedule: Q04DX002 (ip), vehicle: saline with Tween-80); 93 % of control and 212 % of control (dose: 50.0 mg/kg/injection, schedule: Q04DX002 (ip), vehicle: saline with Tween-80).

For `O=C(O)C1OC1C(=O)O` (centres undefined), the T/C (dose: 75.0 mg/kg/injection, schedule: Q04DX003 (ip), vehicle: saline) is 100 % of control; the T/C (dose: 150.0 mg/kg/injection, schedule: Q04DX003 (ip), vehicle: saline) is 100 % of control; the T/C (dose: 300.0 mg/kg/injection, schedule: Q04DX003 (ip), vehicle: saline) is 100 % of control.

`COC1=CC(=O)C(O)=C/C1=C\C=C\c1ccccc1`: the T/C runs as follows: (dose: 2.5 mg/kg/injection, schedule: Q01DX009 (ip), vehicle: saline with Tween-80) 107 % of control; (dose: 5.0 mg/kg/injection, schedule: Q01DX009 (ip), vehicle: saline with Tween-80) 104 % of control; (dose: 10.0 mg/kg/injection, schedule: Q01DX009 (ip), vehicle: saline with Tween-80) 110 % of control.

`C=C1C(C#N)=C(SC)SC(=S)N1CC`: the T/C (dose: 50.0 mg/kg/injection, schedule: Q01DX001 (ip), vehicle: saline with Tween-80) is 95 % of control; the T/C (dose: 100.0 mg/kg/injection, schedule: Q01DX001 (ip), vehicle: saline with Tween-80) was 92 % of control; the T/C (dose: 200.0 mg/kg/injection, schedule: Q01DX001 (ip), vehicle: saline with Tween-80) is 93 % of control; the T/C (dose: 400.0 mg/kg/injection, schedule: Q01DX001 (ip), vehicle: saline with Tween-80) is 95 % of control.

As to `N#CC1C(=O)NC(=O)C(C#N)C1c1ccncc1` (centres undefined), the T/C by setting is: (dose: 50.0 mg/kg/injection, schedule: Q01DX009 (ip), vehicle: Klucel (hydroxypropylcellulose) (HPC)) 103 % of control; (dose: 100.0 mg/kg/injection, schedule: Q01DX009 (ip), vehicle: Klucel (hydroxypropylcellulose) (HPC)) 104 % of control; (dose: 200.0 mg/kg/injection, schedule: Q01DX009 (ip), vehicle: Klucel (hydroxypropylcellulose) (HPC)) 103 % of control.

As to `COC1(OC)C(c2ccc(Cl)cc2)C(C#N)(C#N)C1(OC)OC` (centres undefined), the T/C reads like this: under setting [12], 100 % of control; under setting [13], 102 % of control; under setting [14], 96 % of control.

Consider `O=c1c2cnccc2cc2n1CCc1c-2[nH]c2ccccc12`, for which the T/C by setting is: (dose: 3.12 mg/kg/injection, schedule: Q01DX009 (ip), vehicle: saline with Tween-80) 101 % of control; (dose: 6.25 mg/kg/injection, schedule: Q01DX009 (ip), vehicle: saline with Tween-80) 101 % of control and 86 % of control; (dose: 12.5 mg/kg/injection, schedule: Q01DX009 (ip), vehicle: saline with Tween-80) 101 % of control; (dose: 25.0 mg/kg/injection, schedule: Q01DX009 (ip), vehicle: saline with Tween-80) 110 % of control.

For the compound `COc1cc(C2c3cc(O)c(OC)cc3CC3C(=O)OCC32)ccc1O` (centres undefined), the T/C under setting [9] is 95 % of control, the T/C under setting [10] is 95 % of control and the T/C under setting [11] is 90 % of control.

Take `NC(=O)CC1=Cc2c(ccc3ccc(O)cc23)C1`: the T/C reads like this: (dose: 12.5 mg/kg/injection, schedule: Q01DX009 (ip), vehicle: distilled water + Tween-80) 97 % of control; (dose: 25.0 mg/kg/injection, schedule: Q01DX009 (ip), vehicle: distilled water + Tween-80) 91 % of control; (dose: 50.0 mg/kg/injection, schedule: Q01DX009 (ip), vehicle: distilled water + Tween-80) 102 % of control; (dose: 100.0 mg/kg/injection, schedule: Q01DX009 (ip), vehicle: distilled water + Tween-80) 93 % of control; (dose: 200.0 mg/kg/injection, schedule: Q01DX009 (ip), vehicle: distilled water + Tween-80) 90 % of control.

For `NC(CCSCNc1ncnc2c1ncn2C1OC(CO)C(O)C1O)C(=O)O` (centres undefined), the T/C was 97 % of control (dose: 100.0 mg/kg/injection, schedule: Q04DX002 (ip), vehicle: saline with Tween-80); 93 % of control (dose: 200.0 mg/kg/injection, schedule: Q04DX002 (ip), vehicle: saline with Tween-80); 93 % of control (dose: 400.0 mg/kg/injection, schedule: Q04DX002 (ip), vehicle: saline with Tween-80).

As to `O=C1CCC(c2nc3ccccc3[nH]2)N1Cc1ccccc1` (centres undefined), the T/C was 97 % of control under setting [1], 90 % of control under setting [2] and 89 % of control under setting [3].

As for `Cn1ncc2c(N)c(C#N)c(=O)[nH]c21`, under “dose: 25.0 mg/kg/injection, schedule: Q01DX001 (ip), vehicle: saline with Tween-80”, the T/C is 102 % of control.

On to `CSc1ncc(CO)c(N)n1`, for which the T/C reads like this: (dose: 100.0 mg/kg/injection, schedule: Q04DX003 (ip), vehicle: Klucel (hydroxypropylcellulose) (HPC)) 90 % of control; (dose: 200.0 mg/kg/injection, schedule: Q04DX003 (ip), vehicle: Klucel (hydroxypropylcellulose) (HPC)) 95 % of control; (dose: 400.0 mg/kg/injection, schedule: Q04DX003 (ip), vehicle: Klucel (hydroxypropylcellulose) (HPC)) 95 % of control.

Consider `Cc1noc2nccnc12`, for which the T/C is, setting by setting: (dose: 25.0 mg/kg/injection, schedule: Q04DX003 (ip), vehicle: saline with Tween-80) 100 % of control; (dose: 50.0 mg/kg/injection, schedule: Q04DX003 (ip), vehicle: saline with Tween-80) 91 % of control; (dose: 100.0 mg/kg/injection, schedule: Q04DX003 (ip), vehicle: saline with Tween-80) 91 % of control.
